Measurements reported in patent US11173116B2, “Drug delivery system kit comprising an enzyme” (INDUSTRY-ACADEMIC COOPERATION FOUNDATION, YONSEI UNIVERSITY, priority 2018, dated 2021).
Counter-ions that a name gives are not always drawn.

Test system: HeLa cells
Test: Cytotoxicity test, MTT assay
Assay type: cell-based
Settings: amount of 1 μg
Method: HeLa cells were cultured for 2 to 3 days in a 100 mm culture dish (SPL, Pocheon-si, Korea) in a 5% CO2 incubator. When 95% of the cells were grown, the cells were detached by trypsin-EDTA treatment. Thereafter, for a toxicity test, the cells were inoculated at a density of 7,000 cells/well in a 24-well plate. For cell attachment, the cells were cultured for one day, and for cytotoxicity and anticancer assays, the enzyme, DOX, and DOX-free hollow drug delivery system in the culture medium were used to treat the cells separately. After the materials were cultured for one day, the cytotoxicity was measured using a 3-(4,5-dimethylthiazol-2-yl)-2,5-diphenyltetrazolium bromide (MTT) assay. An MTT solution (5 mg/mL) in PBS was used to treat the cells for 2 hours in an incubator, the cells were dissolved in DMSO, and the absorbance at a wavelength of 540 nm was measured using a plate reader (SpectraMax 340 PC; Molecular Devices, Sunnyvale, Calif., USA).
The anticancer effect of the DOX-conjugated drug delivery system was investigated through a cytotoxicity test. In this case, 1 μg of the DOX-conjugated hollow drug delivery systems of Preparation Examples 4 and 5 were used. A cell culture medium was composed of 90% Dulbecco's Modified Eagle Medium, 10% fetal bovine serum, and 1% penicillin-streptomycin-glutamine. […]

## COc1cccc2c1C(=O)c1c(O)c3c(c(O)c1C2=O)C[C@@](O)(C(=O)CO)C[C@@H]3O[C@H]1C[C@H](N)[C@H](O)[C@H](C)O1 [DOX, doxorubicin hydrochloride]
  cytotoxicity: very high toxicity
